Measurements from PMC10739246 (ACS Bio & Med Chem Au, 2023).
Values after ≈ are worked out from the molar mass of the structure shown. “Also recorded” adds a separate entry of the source. Where two headings read alike, the source gives them in different places. Residues, ends and D or L forms follow the SMILES beside them.

Tests used:
[1] = tested on: MreB in B. subtilis MW10; assay: MreB mobility assay; assay type: cell-based, Bacillus subtilis; conditions: B. subtilis MW10, 1 h of antibiotic exposure
Procedure: MreB is an actin homologue that forms filamentous structures along the lateral axis of the cell. It moves along the length of the cells in a spiraling pattern thereby driving lateral peptidoglycan synthesis.[36],[37] MreB mobility is sensitive to inhibition of peptidoglycan synthesis and so far, every cell wall synthesis inhibitor we tested abolished MreB movement (see Figure S70 for examples).
Expression of msfGFP-MreB was induced with 0.3% xylose. Pictures were taken after 1 h of antibiotic exposure. Two images of the same field of view were recorded 30 s apart and overlaid in ImageJ to visualize MreB mobility. A perfect overlap (yellow) indicates stalled MreB movement, while distinct red and green foci are indicative of MreB mobility. Scale bar 2 μm.
Fig. S70: MreB motility in B. subtilis MW10 after treatment with different cell wall synthesis inhibitors. Expression of GFP-MreB was induced with 0.3% xylose. Cells were treated with 1x […]
Two images of the same field of view were recorded 30 sec apart and overlaid in ImageJ to visualize MreB mobility. A perfect overlap (yellow) indicates stalled MreB movement while distinct red and green spots are indicative of MreB mobility. Scale bar 2 µm.

[2] = tested on: B. subtilis DSM402; assay: Peptidoglycan integrity assay (acetic acid/methanol fixation); conditions: 1x MIC; 30 min (cell wall inhibitors) or 60 min
[3] = tested on: MurG in B. subtilis TNVS175; assay: MurG localization; assay type: cell-based, Bacillus subtilis; conditions: 1x MIC; 30 min (vancomycin) or 1 h;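 further: normal MurG forms small membrane spots and peptidoglycan inhibition gives large clusters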
[4] = tested on: cell wall biosynthesis in B. subtilis DSM402; assay: Summary of cell wall synthesis experiments; assay type: cell-based, Bacillus subtilis
[5] = tested on: B. subtilis DSM402; conditions: for μM (concentration used, 1x MIC): Table 2, cells treated with 1x MIC; for concentration (MIC against B. subtilis DSM402): Tab. S13, concentrations represent MIC values
[6] = tested on: M. tuberculosis (MC26020); assay: microbe, parasite or virus in culture; assay type: cell-based, Mycobacterium tuberculosis
[7] = tested on: E. coli; assay: microbe, parasite or virus in culture; conditions: Escherichia coli, read-out: MICC (MIC of the test compound alone)
[8] = tested on: E. coli; conditions: for FICC (fractional inhibitory concentration of the test compound): MICCcheckerboard/MICC; for MICCcheckerboard (MIC of the test compound in checkerboard assay): combined with mupirocin; for FICM (MICMcheckerboard/MICM): mupirocin alone 64 µg/mL; for MICMcheckerboard (MIC of mupirocin in checkerboard assay): mupirocin combined with the compound of the line
[9] = tested on: E. coli W3110; assay: Bacterial cytological profiling (BCP) in E. coli W3110; assay type: cell-based, Escherichia coli; conditions: for DAPI / phase contrast / FM4-64: 1x MIC, 1 h; for DAPI: DNA condensation; for phase contrast: indicates cell lysis; for FM4-64: membrane stain; for gyrase inhibition / membrane damage: interpretation of BCP in E. coli
[10] = tested on: B. subtilis DSM402; assay: Bacterial cytological profiling (BCP) in B. subtilis DSM402; assay type: cell-based, Bacillus subtilis; conditions: for DAPI / phase contrast / FM4-64: 1x MIC, 1 h; for DAPI: DNA condensation; for phase contrast: indicates cell lysis; for FM4-64: membrane stain; for gyrase inhibition / membrane damage: interpretation of BCP in B. subtilis
[11] = tested on: norfloxacin-resistant clinical isolate of E. coli; assay: MIC, microdilution, norfloxacin-resistant clinical isolate of E. coli; assay type: cell-based, Escherichia coli; conditions: read-out: MIC E. coli (norfloxacin-resistant strain)
[12] = tested on: K. pneumoniae (ATCC 10031); assay: MIC, K. pneumoniae ATCC 10031; assay type: cell-based, Klebsiella pneumoniae
[13] = tested on: E. coli BCB472; assay: GlpT localization (inner membrane) in E. coli BCB472; conditions: 1x MIC, 1 h; GFP-tagged membrane protein
[14] = tested on: S. aureus (CCUG1800T); assay: MIC, microdilution, S. aureus CCUG1800T; assay type: cell-based, Staphylococcus aureus
[15] = tested on: S. aureus (ATCC 43300) MRSA; assay: MIC, microdilution, MRSA ATCC 43300; assay type: cell-based, Staphylococcus aureus; conditions: norfloxacin-resistant strain
[16] = tested on: E. faecalis (ATCC 19433); assay: MIC, E. faecalis ATCC 19433; assay type: cell-based, Enterococcus faecalis
[17] = tested on: P. aeruginosa (PAO1); assay: MIC, microdilution, P. aeruginosa PAO1; assay type: cell-based, Pseudomonas aeruginosa
[18] = tested on: E. coli (W3110); assay: MIC, microdilution, E. coli W3110; assay type: cell-based, Escherichia coli; conditions: for MIC: Gram-negative strain, average of duplicate experiments, read-out: MIC E. coli (W3110); for concentration (MIC against E. coli W3110): Tab. S11, concentrations represent MIC values
[19] = read-out: MIC S. aureus (CCUG1800T)

## C[C@@H]1O[C@@H]1P(=O)(O)O [Fos, fosfomycin]
[1]
  MreB mobility: static with foci
[2]
  PG integrity: compromised
[3]
  protein localization MurG: patchy/dispersed
[4]
  CWB inhibited?: yes
[5]
  μM (concentration used, 1x MIC): 72.43 µM

## NNC(=O)c1ccncc1 [INH, isoniazid, reference compound]
[6]; Mycobacterium tuberculosis, read-out: MIC M. tuberculosis (MC26020)
  MIC: 1.82 µM (≈ 0.25 µg/mL)

## C/C(=C\C(=O)OCCCCCCCCC(=O)O)C[C@@H]1OC[C@H](C[C@@H]2O[C@H]2[C@@H](C)[C@H](C)O)[C@@H](O)[C@H]1O [Mup, mupirocin]
[7]
  MIC: 64 µg/mL

## CC(C)C[C@@H]1NC(=O)[C@@H](Cc2ccccc2)NC(=O)[C@H](CCN)NC(=O)[C@@H](NC(=O)[C@H](CCN)NC(=O)[C@@H](N)[C@@H](C)O)CCNC(=O)[C@H]([C@@H](C)O)NC(=O)[C@H](CCN)NC(=O)[C@H](CCN)NC1=O [PolBN, polymyxin B nonapeptide, reference compound] (HELM PEPTIDE1{T.[Dab].[Dab].[Dab].[dF].L.[Dab].[Dab].T}$PEPTIDE1,PEPTIDE1,3:R3-9:R2$$$V2.0; N-terminus assumed)
[8]
  FICI (fractional inhibitory concentration index): 0.0234
  MICC (MIC of the test compound alone): 128 µg/mL
  FICC (fractional inhibitory concentration of the test compound): 0.0078
  MICCcheckerboard (MIC of the test compound in checkerboard assay): 1 µg/mL
  FICM (MICMcheckerboard/MICM): 0.0156
  MICMcheckerboard (MIC of mupirocin in checkerboard assay): 1 µg/mL

## CCn1cc(C(=O)O)c(=O)c2cc(F)c(N3CCN(C(=O)CCl)CC3)cc21 [compound 2]
[9]
  DAPI: condensed
  phase contrast: dark
  FM4-64: smooth
  gyrase inhibition: yes
  membrane damage: no
[10]
  DAPI: condensed
  phase contrast: dark
  FM4-64: smooth
  gyrase inhibition: yes
  membrane damage: no
[11]
  MIC: >1293.54 µM
[6]
  MIC M. tuberculosis (MC26020): >1293.54 µM
[2]
  PG integrity: came close to the cutoff value; also recorded: intact
[12]
  MIC: 121.27 µM (≈ 48 µg/mL)
[13]
  GlpT: smooth
[4]
  CWB inhibited?: no
[5]
  concentration (MIC against B. subtilis DSM402): 1.89 µM
  μM (concentration used, 1x MIC): 1.89 µM
[14]; [19]
  MIC: 2.52 µM (≈ 0.997 µg/mL)
[15]
  MIC: 161.69 µM (≈ 64 µg/mL)
[16]
  MIC: 6.31 µM (≈ 2.5 µg/mL)
[8]
  FICC (fractional inhibitory concentration of the test compound): 1.25
  MICCcheckerboard (MIC of the test compound in checkerboard assay): 2.5 µg/mL
  FICM (MICMcheckerboard/MICM): 0.2656
  MICMcheckerboard (MIC of mupirocin in checkerboard assay): 7.8 µg/mL
[8]; average of at least two replicates
  MICC (MIC of the test compound alone): 2 µg/mL
[8]; checkerboard with mupirocin
  Outcome: additive (>0.5 to ≤4.0 as additive (no interaction))
[8]; with mupirocin, FICC+FICM
  FICI (fractional inhibitory concentration index): 1.5156
[17]
  MIC: 192 µM (≈ 76 µg/mL)
[18]
  MIC: 6.31 µM (≈ 2.5 µg/mL)
  concentration (MIC against E. coli W3110): 6.31 µM

## CCn1cc(C(=O)O)c(=O)c2cc(F)c(N3CCN(C(=O)CNNC(=O)c4ccncc4)CC3)cc21 [compound 16]
[10]
  DAPI: condensed
  phase contrast: dark
  FM4-64: patchy
  gyrase inhibition: yes
  membrane damage: yes
[11]; norfloxacin-resistant clinical isolate
  MIC: 32.22 µM (≈ 16 µg/mL)
[6]
  MIC M. tuberculosis (MC26020): 1 µM (≈ 0.496 µg/mL)
[2]
  PG integrity: intact
[12]
  MIC: 12.08 µM (≈ 6 µg/mL)
[4]
  CWB inhibited?: no
[5]
  concentration (MIC against B. subtilis DSM402): 2.01 µM
  μM (concentration used, 1x MIC): 2.01 µM
[14]; Tab. S10, DNA gyrase side, strain not given, values equal S. aureus CCUG1800T of Table 1, read-out: MIC
  MIC: 2.01 µM (≈ 0.998 µg/mL)
[14]; [19]
  MIC: 2.01 µM (≈ 0.998 µg/mL)
[15]
  MIC: 64.45 µM (≈ 32 µg/mL)
[16]
  MIC: 2.01 µM (≈ 0.998 µg/mL)
[17]
  MIC: 515.61 µM (≈ 256 µg/mL)
[18]
  MIC: 64.45 µM (≈ 32 µg/mL)

## polymyxin B [PolB, reference compound]
[9]
  DAPI: dispersed
  phase contrast: dark
  FM4-64: patchy
  gyrase inhibition: no
  membrane damage: yes
[13]
  GlpT: dispersed
[18]
  concentration (MIC against E. coli W3110): 0.83 µM

## tunicamycin
[1]
  MreB mobility: static
[2]
  PG integrity: compromised
[3]
  protein localization MurG: patchy
[4]
  CWB inhibited?: yes
[5]
  μM (concentration used, 1x MIC): 19.58 µM
